According to patent publication US5162315A, “Penetration enhancers” (priority 1989, dated 1992):

What was measured:
[1] = type: in vitro ADME, human
Protocol: The compounds of the present invention were tested in vitro as penetration enhancers according to the procedure outlined below.
(§1) Human stratum corneum was isolated from full thickness human skin as described by Bronaugh et al., J. Pharm. Sci. 75, 1094 (1986). The skin was placed between the donor and the receptor compartments of diffusion cells in such a way that the dermal side of the skin faced the receptor compartment which was filled with normal saline (pH 7.2-7.4). The stratum corneum was equilibrated at 37° C. overnight prior to the application of a topical formulation or transdermal patch. All formulations were studied in triplicate.
(§2) About 500 mg of the following three Isosorbide Dinitrate (ISDN) formulations (40% ISDN & 60% Lactose) were applied to cover the stratum corneum surface within the donor compartment. The entire contents of the receptor compartment were removed at specific time intervals over 48 hours and replenished with fresh saline. The aliquots were analyzed by HPLC and the average cumulative amount of ISDN in micrograms permeating over the study period was calculated.
Procedure of Example 8 was repeated with the following

[2] = type: in vitro ADME, human; remark: listed apart in the source
Protocol: The compounds of the present invention were tested in vitro as penetration enhancers according to the procedure outlined below. The penetration enhancers were formulated with pharmacologically active agents in creams and permeation of the active agent through human stratum corneum in vitro was compared to control formulation without enhancer. Higher permeation of the active agent in presence of an enhancer exemplified the invention.
as §1, §2
Procedure of Example 8 was repeated with the following Haloperiodol Decanoate (HD) cream formulations. Saline in the receptor compartment was substituted with saline/isopropyl alcohol (1:1).

Row | Average Cumulative Amount of HC in Micrograms permeating over 48 hours [1] [Micrograms] | HC permeation enhancement compared to cyclic isomer [1] | Average Cumulative Amount of HD in Micrograms permeating over 51 hours [2] [Micrograms] | Structure (SMILES) | HC permeation compared to control cream [1] | HD permeation compared to control [2]
1 | 67.53 ± 3.34 |  |  | CCCCCCCCCCCC1=NCCN1CCO [1-(2-hydroxyethyl)-2-undecyl-2-imidazoline, reference compound] |  | 
2 | 55.19 ± 5.16 | as effective as its cyclic isomer |  | CCCCCCCCCCCC(=O)NCCNCCO [Example 1, N-[2-(2-hydroxyethyl)aminoethyl]dodecanamide] | superior permeation as compared to control cream | 
3 |  |  | 617.68 ± 17.68 | CCCCCCCCCC(=O)OC1(c2ccc(Cl)cc2)CCN(CCCC(=O)c2ccc(F)cc2)CC1 [HD, Haloperiodol Decanoate, reference compound] |  | 
4 |  |  | 936.66 ± 16.98 | CCCCCCCCCCCC(=O)N1CCN(CCO)CC1 [Example 5, 1-(1-oxododecyl)-4-(2-hydroxyethyl)piperazine] |  | higher HD permeation as compared to control
